Patent publication US4868177A, “1,2,3,4-tetrahydro-1,9-acridinediamines, pharmaceutical compositions and use” (priority 1988, dated 1989)
Structures can show the parent of a compound that is named as a salt.

Experiments:
acetylcholinesterase = acetylcholinesterase (Homo sapiens, UniProt P22303); test: Cholinesterase Inhibition Assay (photometric method of Ellman et al.); type: biochemical
mice = test: Dark Avoidance Assay (reversal of scopolamine induced memory deficit); type: in vivo; settings: retested 24 hours later
Description: This utility can also be ascertained by determining the ability of these compounds to restore cholinergically deficient memory in the Dark Avoidance Assay. In this assay mice are tested for their ability to remember an unpleasant stimulus for a period of 24 hours. A mouse is placed in a chamber that contains a dark compartment; a strong incadescent light drives it to the dark compartment, where an electric shock is administered through metal plates on the floor. The animal is removed from the testing apparatus and tested again, 24 hours later, for the ability to remember the electric shock.
If scopolamine, an anticholinergic that is known to cause memory impairment, is administered before an animal's initial exposure to the test chamber, the animal re-enters the dark compartment shortly after being placed in the test chamber 24 hours later. This effect of scopolamine is blocked by an active test compound, resulting in a greater interval before re-entry into the dark compartment.
The results for an active compound are expressed as the percent of a group of animals in which the effect of scopolamine is blocked, as manifested by an increased interval between being placed in the test chamber and re-entering the dark compartment.

Sequence of acetylcholinesterase (P22303 32-614): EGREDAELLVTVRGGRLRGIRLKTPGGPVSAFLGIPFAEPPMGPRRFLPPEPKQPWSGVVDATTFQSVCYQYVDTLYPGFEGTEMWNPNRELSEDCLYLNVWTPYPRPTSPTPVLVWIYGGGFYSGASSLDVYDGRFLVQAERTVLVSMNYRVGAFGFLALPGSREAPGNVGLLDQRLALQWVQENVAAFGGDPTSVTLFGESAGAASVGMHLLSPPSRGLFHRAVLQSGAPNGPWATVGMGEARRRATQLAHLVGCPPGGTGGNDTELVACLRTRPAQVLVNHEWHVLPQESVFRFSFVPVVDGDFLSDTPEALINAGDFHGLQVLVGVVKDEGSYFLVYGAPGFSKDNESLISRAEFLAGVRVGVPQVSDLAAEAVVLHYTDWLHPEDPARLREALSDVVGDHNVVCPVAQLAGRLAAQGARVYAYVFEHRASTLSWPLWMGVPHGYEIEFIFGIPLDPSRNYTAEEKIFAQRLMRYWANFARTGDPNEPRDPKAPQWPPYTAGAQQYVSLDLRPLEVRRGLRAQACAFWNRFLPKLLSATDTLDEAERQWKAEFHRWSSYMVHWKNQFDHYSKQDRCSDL

Question: Which results are given for `Nc1c2c(nc3ccccc13)CCCC2N1CCCCC1` (stereo not drawn) [1-(1-Piperidinyl)-1,2,3,4-tetrahydro-9-acridinamine]?
Answer: IC50 (acetylcholinesterase): 8.4 µM; % of animals with scopolamine induced memory deficit reversal (mice; 0.16 mg/kg body weight): 13%

Question: With `Nc1c2c(nc3ccccc13)CCCC2N1CCCC1` (stereo not drawn) [1-(1-Pyrrolidinyl)-1,2,3,4-tetrahydro-9-acridinamine] as the compound, how does the IC50 (acetylcholinesterase) read?
Answer: 18 µM

Question: For `CN1CCN(C2CCCc3nc4ccccc4c(N)c32)CC1` (stereo not drawn) [1-(4-Methyl-1-piperazinyl)-1,2,3,4-tetrahydro-9-acridinamine], which IC50 (acetylcholinesterase) is on record?
Answer: > 1000 µM

Question: With `Nc1c2c(nc3ccccc13)CCCC2N1CCOCC1` (stereo not drawn) [1-(4-Morpholinyl)-1,2,3,4-tetrahydro-9-acridinamine] as the compound, how does the IC50 (acetylcholinesterase) read?
Answer: > 1000 µM

Question: For `Nc1c2c(nc3ccccc13)CCCC2N1CCN(c2ccccc2)CC1` (stereo not drawn) [1-(4-Phenyl-1-piperazinyl)-1,2,3,4-tetrahydro-9-acridinamine, maleate], which IC50 (acetylcholinesterase) is on record?
Answer: > 1000 µM

Question: For `[N-]=[N+]=NC1CCCc2nc3ccccc3c(N)c21` (stereo not drawn) [1-Azido-1,2,3,4-tetrahydro-9-acridinamine, maleate], which IC50 (acetylcholinesterase) is on record?
Answer: 12 µM

Question: Which IC50 (acetylcholinesterase) does the source give for `Nc1c2c(nc3ccccc13)CCCC2NCc1ccccc1` (stereo not drawn) [N1 -Benzyl-1,2,3,4-tetrahydro-1,9-acridinediamine] here?
Answer: 20 µM

Question: `CCCCNC1CCCc2nc3ccccc3c(N)c21` (stereo not drawn) [N1 -Butyl-1,2,3,4-tetrahydro-1,9-acridinediamine] was tested. Which IC50 (acetylcholinesterase) did it give?
Answer: 49 µM

Question: `CCNC1CCCc2nc3ccccc3c(N)c21` (stereo not drawn) [N1 -Ethyl-1,2,3,4-tetrahydrol, 9-acridinediamine, fumarate, hemi-hydrate] was tested. Which IC50 (acetylcholinesterase) did it give?
Answer: 4.8 µM

Question: For `CCCNC1CCCc2nc3ccccc3c(N)c21` (stereo not drawn) [N1 -Propyl-1,2,3,4-tetrahydro-1,9-acridinediamine], which IC50 (acetylcholinesterase) is on record?
Answer: 13 µM

Question: And the “% of animals with scopolamine induced memory deficit reversal” value (mice; 0.31 mg/kg body weight)?
Answer: 20%

Question: For `Nc1c2c(nc3ccccc13)CCCC2NCCc1ccccc1` (stereo not drawn) [N1-(2-Phenylethyl)-1,2,3,4-tetrahydro-1,9-acridinediamine], which IC50 (acetylcholinesterase) is on record?
Answer: 19 µM

Question: `COc1ccc(CNC2CCCc3nc4ccccc4c(N)c32)cc1OC` (stereo not drawn) [N1-(3,4-Dimethoxybenzyl)-1,2,3,4-tetrahydro-1,9-acridinediamine] was tested. Which IC50 (acetylcholinesterase) did it give?
Answer: 39 µM

Question: Which “% of animals with scopolamine induced memory deficit reversal” value (mice; 0.31 mg/kg body weight) does the source give for `CNC(=O)Oc1ccc2c(c1)[C@]1(C)CCN(C)[C@@H]1N2C` [Physostigmine, reference compound] here?
Answer: 20%
